Measurements taken from PubChem BioAssay (NCI).
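Exposure lasted 48 hours, with cells grown in 96-well plates and compounds tested at five concentrations. TGI marks complete inhibition of growth.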

Key:
Assay in all cases: NCI tumour cell line growth inhibition, 48 h
ACHN renal = system: ACHN renal
MALME-3M melanoma = system: MALME-3M melanoma
LOX IMVI melanoma = system: LOX IMVI melanoma
SK-MEL-2 melanoma = system: SK-MEL-2 melanoma
KM12 colon = system: KM12 colon
A549 NSCLC = system: A549 NSCLC
NCI-H23 lung = system: NCI-H23 lung
UO-31 renal = system: UO-31 renal
HCT-116 colon = system: HCT-116 colon
DMS 114 small cell lung = system: DMS 114 small cell lung
RPMI-8226 leukemia = system: RPMI-8226 leukemia
RXF 393 renal = system: RXF 393 renal
LXFL 529 NSCLC = system: LXFL 529 NSCLC
SK-MEL-28 melanoma = system: SK-MEL-28 melanoma
UACC-62 melanoma = system: UACC-62 melanoma
K-562 leukemia = system: K-562 leukemia
OVCAR-3 ovarian = system: OVCAR-3 ovarian
SNB-19 CNS = system: SNB-19 CNS
M14 melanoma = system: M14 melanoma
SN12C renal = system: SN12C renal
786-0 renal = system: 786-0 renal
MOLT-4 leukemia = system: MOLT-4 leukemia
EKVX NSCLC = system: EKVX NSCLC
SK-OV-3 ovarian = system: SK-OV-3 ovarian
SF-539 CNS = system: SF-539 CNS
OVCAR-5 ovarian = system: OVCAR-5 ovarian
IGROV1 ovarian = system: IGROV1 ovarian
KM20L2 colon = system: KM20L2 colon
DLD-1 colon = system: DLD-1 colon
A498 renal = system: A498 renal
NCI-H522 lung = system: NCI-H522 lung
HOP-62 NSCLC = system: HOP-62 NSCLC
RXF-631 renal = system: RXF-631 renal
OVCAR-4 ovarian = system: OVCAR-4 ovarian
HT29 colon = system: HT29 colon
U251 CNS = system: U251 CNS
M19-MEL melanoma = system: M19-MEL melanoma
NCI-H460 lung = system: NCI-H460 lung
HCT-15 colon = system: HCT-15 colon
SF-295 CNS = system: SF-295 CNS
COLO 205 colon = system: COLO 205 colon
HOP-18 NSCLC = system: HOP-18 NSCLC
SF-268 CNS = system: SF-268 CNS
XF 498 CNS = system: XF 498 CNS
SK-MEL-5 melanoma = system: SK-MEL-5 melanoma
HOP-92 NSCLC = system: HOP-92 NSCLC
SW-620 colon = system: SW-620 colon
HCC-2998 colon = system: HCC-2998 colon
DMS 273 small cell lung = system: DMS 273 small cell lung
OVCAR-8 ovarian = system: OVCAR-8 ovarian
TK-10 renal = system: TK-10 renal
UACC-257 melanoma = system: UACC-257 melanoma
SNB-75 CNS = system: SNB-75 CNS

CCNC(=O)O/N=C1\CCC2[C@@H]3CC=C4C[C@@H](OC(=O)NCC)CC[C@]4(C)C3CC[C@]12C (stereo partly drawn)
TGI (ACHN renal): 4.96 µM | TGI (MALME-3M melanoma): 1.51 µM | TGI (LOX IMVI melanoma): 4.64 µM | TGI (SK-MEL-2 melanoma): 9.87 µM | TGI (KM12 colon): 13.8 µM | TGI (A549 NSCLC): 13.5 µM | TGI (NCI-H23 lung): 11.7 µM | TGI (UO-31 renal): 2.62 µM | TGI (HCT-116 colon): 13.7 µM | TGI (DMS 114 small cell lung): 1.82 µM | TGI (RPMI-8226 leukemia): 5.69 µM | TGI (RXF 393 renal): 11.6 µM | TGI (LXFL 529 NSCLC): 2.2 µM | TGI (SK-MEL-28 melanoma): 12.1 µM | TGI (UACC-62 melanoma): 10.2 µM | TGI (K-562 leukemia): 4 µM | TGI (OVCAR-3 ovarian): 12.6 µM | TGI (SNB-19 CNS): 14.1 µM | TGI (M14 melanoma): 3.23 µM | TGI (SN12C renal): 11.9 µM | TGI (786-0 renal): 12.8 µM | TGI (MOLT-4 leukemia): 3.2 µM | TGI (EKVX NSCLC): 4.84 µM | TGI (SK-OV-3 ovarian): 19.7 µM | TGI (SF-539 CNS): > 100 µM | TGI (OVCAR-5 ovarian): 17.1 µM | TGI (IGROV1 ovarian): > 100 µM | TGI (KM20L2 colon): 12.7 µM | TGI (DLD-1 colon): > 100 µM | TGI (A498 renal): > 100 µM | TGI (NCI-H522 lung): 10.6 µM | TGI (HOP-62 NSCLC): > 100 µM | TGI (RXF-631 renal): 17.3 µM | TGI (OVCAR-4 ovarian): 5.19 µM | TGI (HT29 colon): 13 µM | TGI (U251 CNS): 9.6 µM | TGI (M19-MEL melanoma): 4.79 µM | TGI (NCI-H460 lung): 10 µM | TGI (HCT-15 colon): 12.5 µM | TGI (SF-295 CNS): 11.4 µM | TGI (COLO 205 colon): 1.73 µM | TGI (HOP-18 NSCLC): 6.73 µM | TGI (SF-268 CNS): 13 µM | TGI (XF 498 CNS): 0.911 µM | TGI (SK-MEL-5 melanoma): 10.4 µM | TGI (HOP-92 NSCLC): 13.3 µM | TGI (SW-620 colon): 16.7 µM | TGI (HCC-2998 colon): 17.7 µM | TGI (DMS 273 small cell lung): 3.54 µM | TGI (OVCAR-8 ovarian): 18.2 µM | TGI (TK-10 renal): 5.9 µM | TGI (UACC-257 melanoma): 3.33 µM | TGI (SNB-75 CNS): 7.35 µM
